{"source": "patent US20050255469A1", "about": "“Human 5-ht7 receptor promoter sequence” (priority 2002, published 2005)", "key": {"5-HT7 receptor": {"target": "5-HT7 receptor (Homo sapiens, UniProt P34969)", "sequence (P34969 whole entry)": "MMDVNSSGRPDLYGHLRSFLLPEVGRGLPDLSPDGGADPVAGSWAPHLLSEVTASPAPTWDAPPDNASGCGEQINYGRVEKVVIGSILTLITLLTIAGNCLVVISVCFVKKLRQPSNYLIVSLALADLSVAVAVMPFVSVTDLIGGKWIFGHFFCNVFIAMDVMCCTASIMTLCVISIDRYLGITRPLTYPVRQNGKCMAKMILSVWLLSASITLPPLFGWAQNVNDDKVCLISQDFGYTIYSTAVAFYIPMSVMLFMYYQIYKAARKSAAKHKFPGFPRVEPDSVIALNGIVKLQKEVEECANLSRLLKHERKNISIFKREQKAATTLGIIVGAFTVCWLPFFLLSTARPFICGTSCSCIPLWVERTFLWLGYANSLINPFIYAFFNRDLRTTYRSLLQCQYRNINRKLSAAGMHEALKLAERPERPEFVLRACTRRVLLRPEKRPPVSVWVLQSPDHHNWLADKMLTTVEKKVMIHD", "conditions": "cited from earlier work"}, "[1]": {"tested_on": "circadian rhythm of hamsters", "conditions": "cited from earlier work"}, "5-HT7 receptor promoter": {"tested_on": "5-HT7 receptor promoter", "experiment": "transient transfection luciferase reporter assay with 5-HT7 promoter constructs in HEK293T cells, barbiturate treatment", "format": "cell-based, human", "experimental": "HEK293T cells were maintained in Dulbecco's modified Eagle's medium supplemented with 100 units/ml penicillin, 100 μg/ml streptomycin, and 10% newborn calf serum. These cells were maintained at 37° C. in a humidified atmosphere of 5% CO2.\n10^5 cells/cm^2 in 24-well dishes were transfected with 150 ng promoter plasmid and 50 ng neogal (served as an internal control), using the standard calcium phosphate coprecipitation method. 24 hours after transfection, cells were washed once with PBSA and lysed in 150 μl 100 mM potassium phosphate (pH 7.8), 0.2% Triton X-100. The samples were analyzed for luciferase activity as described previously (Vanden Berghe et al., 1998). β-Galactosidase activity was measured using Galacto Star (Tropix) as substrate. For the barbiturate experiments, treatment with different barbiturates started 24 hours after transfection of the cells\nAccording to MatInspector, a putative BARBIE (Barbiturate Inducible Element) is present in the promoter region of the 5-HT7 receptor. To investigate the possible influence of barbiturates on 5-HT7 promoter activity, we transiently transfected HEK293T cells with the different promoter constructs and treated the transfected cells with barbiturates for 24 h (FIG. 6a). […] The reduction varied from 30-50% depending on the promoter construct used and the type of barbiturate."}, "GAPDH": {"tested_on": "GAPDH", "experiment": "RT-PCR analysis of GAPDH mRNA levels in 1321-N1 cells", "format": "cell-based, human", "conditions": "different concentrations, 24 h", "experimental": "(§1) 132-1N1 human astrocytoma cells were seeded into 58 cm^2 plates; 12 hours after seeding the cells were cultured with either medium alone (−) or medium containing 10 nM, 100 nM, 500 nM, 1 μM, 2 μM or 5 μM Mithramycin A (Serva). Total RNA was isolated using a RNeasy, total RNA isolation kit (Qiagen). cDNA was synthesized using AMV reverse transcriptase (Promega). The cDNA was then amplified by PCR in a total volume of 30 μl containing 10 pmol of each primer, 200 μM dNTP, Taq DNA polymerase buffer, 2,5 units of Taq and 5 μl of cDNA. PCR conditions were 94° C., 30 sec; 56° C., 1 min; 72° C., 2 min; for 35 cycles. PCR products were analyzed by electrophoresis through 6% polyacrylamide gel."}, "5-HT7 promoter": {"tested_on": "5-HT7 promoter", "experiment": "luciferase reporter assay in NS20Y cells transiently transfected with the F1000 construct, mithramycin A treatment", "format": "cell-based, mouse", "conditions": "increasing concentrations, 24 h", "experimental": "N2A and NS20Y cells were maintained in Dulbecco's modified Eagle's medium supplemented with 100 units/ml penicillin, 100 μg/ml streptomycin, and 10% foetal calf serum. These cells were maintained at 37° C. in a humidified atmosphere of 5% CO2. 4×10^5 cells in 6 well dishes were transfected with 500-1000 ng promoter construct and 300 ng neogal (served as internal control), using JetPEI a cationic polymer transfection reagent (Qbiogene).\nCells were treated with different concentrations of Mithramycin A for 24 hours.\nThe significance of binding by Sp1 to the 5-HT7 promoter for transcriptional activity was confirmed in experiments with mithramycin A, a compound that interferes with Sp1 binding to GC boxes in DNA."}, "5-HT7 mRNA": {"tested_on": "5-HT7 mRNA", "experiment": "RT-PCR analysis of endogenous 5-HT7 mRNA levels in 1321-N1 cells", "format": "cell-based", "conditions": "1321-N1 human astrocytoma cells, different concentrations, 24 h", "experimental": "as §1"}, "[2]": {"conditions": "time course, HEK293T cells, 2000luc+ and 1000luc+, 1.5 mM"}}, "note": "“Also recorded” adds a separate entry of the source."}
{"compound": "CCCN(CCC)C1CCc2cccc(O)c2C1", "note": "(stereo not drawn) [8-OH-DPAT]", "values": [{"measurement": "affinity for the 5-HT7 receptor", "setting": "5-HT7 receptor", "value": "high affinity"}, {"measurement": "effect on circadian rhythm", "setting": "[1]", "value": "shifted the circadian rhythm"}]}
{"compound": "CCC1(CCC(C)C)C(=O)NC(=O)NC1=O", "note": "[Amobarbital]", "values": [{"measurement": "relative potency in repressing promoter activity", "setting": "5-HT7 receptor promoter; HEK293T cells, 1,5 mM, 24 h, Amobarbital versus Phenobarbital", "value": "somewhat more potent"}, {"measurement": "effect on 5-HT7 receptor promoter activity", "setting": "5-HT7 receptor promoter; HEK293T cells, transient transfection, 1.5 mM barbiturate, 24 h", "value": "repress 5-HT7 receptor promoter activity"}]}
{"compound": "CCC1(c2ccccc2)C(=O)NC(=O)NC1=O", "note": "[Phenobarbital]", "values": [{"measurement": "time at which repressive effect reached a maximum", "setting": "5-HT7 receptor promoter; [2]", "value": 16, "unit": "h"}, {"measurement": "time at which repressive effect was already present", "setting": "5-HT7 receptor promoter; [2]", "value": "≤ 6", "unit": "h"}]}
{"compound": "mithramycin A", "values": [{"measurement": "levels of GAPDH", "setting": "GAPDH", "value": "unaffected"}, {"measurement": "5-HT7 promoter activity", "setting": "5-HT7 promoter", "value": "dose-dependent loss of promoter activity; also recorded: inhibits 5-HT7 promoter activity"}, {"measurement": "5-HT7 mRNA levels", "setting": "5-HT7 mRNA", "value": "significant decrease"}]}
